This passage reports EC50 results from patent US10077243B2, “Compounds for treating disorders mediated by metabotropic glutamate receptor 5, and methods of use thereof” (Sunovion Pharmaceuticals Inc., priority 2009, dated 2018).

Some results are limits rather than exact numbers.

For orientation: EC50 means the concentration that produces a half-maximal response.

The assay deals with T1, human mGluR5 (Homo sapiens, UniProt P41594).
T1 construct: expressed in transfected cells; host or cells: HEK293 cells stably expressing rat GLAST (EAAT1), stably transfected with pcDNAzeo3.1 carrying synthetic human mGluR5 DNA; zeocin-selected single clones
T1 sequence (P41594 21-1212): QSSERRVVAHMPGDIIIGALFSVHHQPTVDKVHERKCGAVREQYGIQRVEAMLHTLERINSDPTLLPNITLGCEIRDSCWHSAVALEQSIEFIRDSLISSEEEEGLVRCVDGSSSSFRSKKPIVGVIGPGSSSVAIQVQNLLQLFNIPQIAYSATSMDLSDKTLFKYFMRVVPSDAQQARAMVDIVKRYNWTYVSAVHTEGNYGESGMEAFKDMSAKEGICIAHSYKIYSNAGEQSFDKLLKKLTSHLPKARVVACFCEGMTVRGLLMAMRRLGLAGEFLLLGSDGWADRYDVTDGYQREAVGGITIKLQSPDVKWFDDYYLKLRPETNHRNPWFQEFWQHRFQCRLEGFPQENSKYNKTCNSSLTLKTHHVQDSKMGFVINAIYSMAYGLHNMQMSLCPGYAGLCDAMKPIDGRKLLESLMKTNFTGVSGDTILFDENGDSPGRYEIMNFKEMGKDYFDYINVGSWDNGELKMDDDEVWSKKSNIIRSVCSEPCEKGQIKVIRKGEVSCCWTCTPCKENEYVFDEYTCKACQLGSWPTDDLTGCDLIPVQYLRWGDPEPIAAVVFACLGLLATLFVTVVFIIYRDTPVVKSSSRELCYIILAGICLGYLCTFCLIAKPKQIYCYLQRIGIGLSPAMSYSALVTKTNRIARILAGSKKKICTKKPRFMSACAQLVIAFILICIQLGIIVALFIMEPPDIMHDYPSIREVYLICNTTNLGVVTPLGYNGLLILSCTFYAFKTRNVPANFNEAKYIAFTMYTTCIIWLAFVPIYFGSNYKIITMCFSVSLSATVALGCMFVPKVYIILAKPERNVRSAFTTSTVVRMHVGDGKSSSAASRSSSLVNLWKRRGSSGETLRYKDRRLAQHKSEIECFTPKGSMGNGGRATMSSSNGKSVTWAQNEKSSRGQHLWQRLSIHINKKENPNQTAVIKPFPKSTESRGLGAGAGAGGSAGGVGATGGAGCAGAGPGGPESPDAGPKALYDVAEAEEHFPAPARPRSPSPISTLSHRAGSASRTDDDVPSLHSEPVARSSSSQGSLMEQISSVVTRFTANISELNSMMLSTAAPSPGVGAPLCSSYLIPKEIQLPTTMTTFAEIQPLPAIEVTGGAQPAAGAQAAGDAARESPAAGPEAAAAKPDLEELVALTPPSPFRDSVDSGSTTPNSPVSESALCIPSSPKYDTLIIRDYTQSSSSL
The assay is described as follows: In vitro cell-based FLIPR calcium assay for positive modulation of the activation of mGluR5 by glutamate (PAM EC50). To be noted: HEK293/GLAST cells expressing recombinant human mGluR5; FLIPR calcium signal; glutamate added at its EC20; read-out: mGluR5 PAM EC50. An excerpt:
The DNA sequences encoding the structural regions for rat mGluR5 [Abe T, Sugihara H, Nawa H, Shigemoto R, Mizuno N, Nakanishi S (1992) “Molecular characterization of a novel metabotropic glutamate receptor mGluR5 coupled to inositol phosphate/Ca^2+ signal transduction” Journal of Biological Chemistry vol. 267, no. 19, pp. 13361-8] and human mGluR5 [Daggett L P, Sacaan A I, Akong M, Rao S P, Hess S D, Liaw C, Urrutia A, Jachec C, Ellis S B, Dreessen J, Knöpfel T, Landwehrmeyer G B, Testa C M, Young A B, Varney M, Johnson E C, Veliçelebi (1995) “Molecular and functional characterization of recombinant human metabotropic glutamate receptor subtype 5” Neuropharmacology vol. 34, no. […] 53, no. 3, pp. 355-369] was obtained from Dr. Michael Robinson of the Children's Hospital of Philadelphia under a Material Transfer Agreement. The pcDNAzeo3.1 vector DNA, carrying either rat mGluR5 or human mGluR5, was used to transfect a sample of the HEK293/GLAST cells, and single clones that express mGluR5 were isolated from the transfected cells using zeocin selection. Expression of mGluR5 was assessed by measurement of the transient fluorescence signal elicited from HEK293/GLAST/mGluR5 cells by glutamate following the loading of the cells with a calcium-sensitive dye using a FLIPR Tetra (Fluorometric Imaging Plate Reader) (Molecular Devices, Sunnyvale, Calif.) [O'Brien J A, Lemaire W, Chen T B, Chang R S, Jacobson M A, Ha S N, Lindsley C W, Schaffhauser H J, Sur C, Pettibone D J, Conn P J, Williams D L Jr. […] 64, no. 3, pp. 731-740; Assay Guidance Manual Version 5.0, 2008, Eli Lilly and Company and NIH Chemical Genomics Center; available online HEK293/GLAST/mGluR5 cells were grown in Dulbecco's Modified Eagle Medium (DMEM) supplemented with 10% dialyzed fetal bovine serum, 20 millimolar (mM) N-2-hydroxyethylpiperazine-N′-2-ethanesulfonic acid (HEPES), penicillin, streptomycin, 1% GlutaMax™ (Invitrogen) and 50 μg/ml zeocin. Cells were grown in the media to 70-80% confluency at 37° C. under 5% CO2, 95% humidity in poly-D-lysine coated coated flasks. Cells for assays were plated into 96-well sterile standard microtiter plates (pre-coated with poly-D-lysine) at a density of 50,000 cells per well in 0.2 milliliters of media. Plated cells were allowed to settle and adhere for 30 minutes at ambient conditions, and then were incubated overnight at 37° C. under 5% CO2, 95% humidity. Several such 96-well plates were typically prepared. On the day of the assays, the components of the FLIPR calcium 4 assay kit (Molecular Devices) were dissolved according to the instructions of the dye kit's manufacturer in assay buffer (Hank's balanced salt solution (HBSS) (Gibco) supplemented with 20 mM HEPES). After removal of the growth media from the first plate, cells were loaded with calcium dye by addition of calcium dye solution (50 microliters per well) and incubation at 25° C. for 45 to 60 minutes. The first plate was placed into the FLIPR Tetra, and a dilution series of glutamate solutions in assay buffer were added to wells on the plate, followed by acquisition of fluorescence data for several minutes. The fluorescence data (maximal signal as a 4-parameter sigmoidal function of log [glutamate]) were processed by non-linear regression methods using the software package GraphPad Prism 5.01 (GraphPad Software Inc.), to yield a glutamate concentration-response curve (CRC). […] These values were, respectively, the concentrations of glutamate that elicit 20%, 50%, and 80% of the maximal FLIPR signal (observed at saturating [glutamate]). The method for measuring the concentration response of a potentiator, or positive allosteric modulator (PAM), is described here as an example. For that purpose, subsequent assays were typically performed using assay buffer containing a glutamate concentration equal to that day's EC20. […] Addition to certain wells of the same buffer containing 0.3% DMSO, but without any test compound, provided a negative control.
Turning to `CC(O)c1cnc2cc(C#Cc3cccc(F)c3)ccn2c1=O` (stereo not drawn) [Example 13.1, 8-((3-fluorophenyl)ethynyl)-3-(1-hydroxyethyl)-4H-pyrido[1,2-a]pyrimidin-4-one], the EC50 was in the range of 100 to 300 nM. Regarding `COCC1CCc2nc3cc(C#Cc4ccccn4)ccc3c(=O)n21` (stereo not drawn) [Example 3.7, 1-(methoxymethyl)-6-(pyridin-2-ylethynyl)-2,3-dihydropyrrolo[2,1-b]quinazolin-9(1H)-one], the EC50 is 30 to 100 nM. On to `O=c1c2ccc(C#Cc3cccc(F)c3)cc2nc2n1CCC2` [Example 3.1, 6-((3-fluorophenyl)ethynyl)-2,3-dihydropyrrolo[2,1-b]quinazolin-9(1H)-one], for which the EC50 was less than 10 nM. Regarding `O=c1c2ccc(C#Cc3ccc(F)cc3)cc2ncn1CC1CCCO1` (stereo not drawn) [Example 1.13, 7-((4-fluorophenyl)ethynyl)-3-((tetrahydrofuran-2-yl)methyl)quinazolin-4(3H)-one], the concentration giving a half-maximal response (EC50) was 30 to 100 nM. The figure for `O=c1c2c(nc3cc(C#Cc4ccccn4)ccn13)CCCC2` [Example 15.1, 7-(pyridin-2-ylethynyl)-3,4-dihydro-1H-pyrido[2,1-b]quinazolin-11(2H)-one] is 30 to 100 nM; for `O=c1c2ccc(C#Cc3cccc(F)c3)cc2nc2n1CCN(Cc1ccccc1)C2` [Example 5.10, 2-benzyl-9-((3-fluorophenyl)ethynyl)-3,4-dihydro-1H-pyrazino[2,1-b]quinazolin-6(2H)-one] it is 300 to 1000 nM. As to `O=c1c2ccc(C#Cc3cccc(F)c3)cc2nc2n1CC(CO)CC2` (stereo not drawn) [Example 4.31, 3-((3-fluorophenyl)ethynyl)-8-(hydroxymethyl)-8,9-dihydro-6H-pyrido[2,1-b]quinazolin-11(7H)-one], the EC50 was less than 10 nM. Take `CN(C)C1CCc2nc3cc(C#Cc4cccc(F)c4)ccc3c(=O)n2C1` (stereo not drawn) [Example 4.30, 8-(dimethylamino)-3-((3-fluorophenyl)ethynyl)-8,9-dihydro-6H-pyrido[2,1-b]quinazolin-11(7H)-one]: the EC50 fell in the range of 100 to 300 nM. On to `O=c1c2ccc(C#Cc3cccnc3F)cc2nc2n1CCC1(CC2)OCCO1` [Example 7.14], for which the concentration for a half-maximal effect (EC50) was 100 to 300 nM. Consider `N#CCN1CCc2nc3cc(C#Cc4ccccn4)ccc3c(=O)n2CC1` [Example 8.23, 2-(11-oxo-8-(pyridin-2-ylethynyl)-1,2,4,5-tetrahydro-[1,4]diazepino[7,1-b]quinazolin-3(11H)-yl)acetonitrile], for which the 50% effective concentration (EC50) was in the range of 30 to 100 nM. Turning to `O=c1c2ccc(C#Cc3cccnc3)cc2nc2n1CC1CCCN1C2` (stereo not drawn) [Example 5.24, 8-(pyridin-3-ylethynyl)-2,3,13,13a-tetrahydro-1H-pyrrolo[1′,2′:4,5]pyrazino[2,1-b]quinazolin-11(5H)-one], the EC50 lay within 30 to 100 nM. As to `CC1CCn2c(nc3cc(C#Cc4ccccn4)ccc3c2=O)C1` (stereo not drawn) [Example 4.11, 7-methyl-3-(pyridin-2-ylethynyl)-8,9-dihydro-6H-pyrido[2,1-b]quinazolin-11(7H)-one], the EC50 lay in the range of 30 to 100 nM. Take `CC1(C)CCn2c(nc3nc(C#Cc4ccccn4)ccc3c2=O)C1` [Example 12.2, 9,9-dimethyl-2-(pyridin-2-ylethynyl)-7,8,9,10-tetrahydro-5H-dipyrido[1,2-a:2′,3′-d]pyrimidin-5-one]: the EC50 fell in the range of 30 to 100 nM. The figure for `Cc1noc(C)c1C#Cc1ccc2c(=O)n3c(nc2c1)CCC1(CC3)OCCO1` [Example 7.67] is 10 to 30 nM; for `O=c1c2ncc(C#Cc3ccccn3)cc2nc2n1CC1CCCN1C2` (stereo not drawn) [Example 11.6, 3-(pyridin-2-ylethynyl)-9,10,10a,11-tetrahydro-6H-pyrido[3,2-d]pyrrolo[1′,2′:4,5]pyrazino[1,2-a]pyrimidin-13(8H)-one] it is 300 to 1000 nM; for `CCCn1cnc2cc(C#Cc3cccc(F)c3)ccc2c1=O` [Example 1.7, 7-((3-fluorophenyl)ethynyl)-3-propylquinazolin-4(3H)-one] it is 10 to 30 nM.

For `CCOC(C)c1cnc2cc(C#Cc3cccc(F)c3)ccn2c1=O` (stereo not drawn) [Example 13.2, 3-(1-ethoxyethyl)-8-((3-fluorophenyl)ethynyl)-4H-pyrido[1,2-a]pyrimidin-4-one], the EC50 is less than 10 nM. `O=c1c2ccc(C#Cc3ccnc(F)c3)cc2nc2n1CCC1(CC2)OCCO1` [Example 7.17]: the concentration giving a half-maximal response (EC50) was 30 to 100 nM. On to `O=c1c2ccc(C#Cc3cccc(F)c3)cc2nc2n1CC/C(=N\O)CC2` [Example 6.23, 3-((3-fluorophenyl)ethynyl)-8-(hydroxyimino)-7,8,9,10-tetrahydroazepino[2,1-b]quinazolin-12(6H)-one], for which the EC50 was in the range of 30 to 100 nM. Turning to `O=c1c2ccc(C#Cc3ccc(F)cc3)cc2ncn1CC1CCCO1` (single isomer, unassigned) [1.15/1.16 faster moving enantiomer (fraction 1), 7-((4-fluorophenyl)ethynyl)-3-((tetrahydrofuran-2-yl)methyl)quinazolin-4(3H)-one], the concentration for a half-maximal effect (EC50) lay in the range of 10 to 30 nM.

As to `C=CCC1CCCCc2nc3cc(C#Cc4ccc(F)cc4)ccc3c(=O)n21` (stereo not drawn) [Example 6.33, 10-allyl-3-((4-fluorophenyl)ethynyl)-7,8,9,10-tetrahydroazepino[2,1-b]quinazolin-12(6H)-one], the EC50 was in the range of 10 to 30 nM.

For the compound `CC1(C)CCn2c(nc3cc(/C=C/c4ccccn4)ccc3c2=O)C1` [Example 20.7], the EC50 lay in the range of 10 to 30 nM. The figure for `CC1CCc2nc3cc(C#Cc4ccc(F)cc4)ccc3c(=O)n2CC1` (stereo not drawn) [Example 6.6, 3-((4-fluorophenyl)ethynyl)-8-methyl-7,8,9,10-tetrahydroazepino[2,1-b]quinazolin-12(6H)-one] is less than 10 nM. With `O=c1c2c(nc3cc(C#Cc4ccccc4)ccn13)CCCCC2` [Example 16.2, 3-(phenylethynyl)-7,8,9,10-tetrahydrocyclohepta[d]pyrido[1,2-a]pyrimidin-11(6H)-one], the concentration giving a half-maximal response (EC50) is less than 10 nM. In the case of `CC(C)Cc1nc2cc(C#Cc3cccc(F)c3)ccc2c(=O)n1C` [Example 2.12, 7-((3-fluorophenyl)ethynyl)-2-isobutyl-3-methylquinazolin-4(3H)-one], the EC50 lay in the range of 30 to 100 nM.

`O=c1c2c(nc3cc(C#Cc4ccc(F)cc4)ccn13)CCCCCC2` [Example 17.5, 3-((4-fluorophenyl)ethynyl)-8,9,10,11-tetrahydro-6H-cycloocta[d]pyrido[1,2-a]pyrimidin-12(7H)-one]: the EC50 was less than 10 nM. For `O=c1c2ccc(C#Cc3ccccn3)cc2nc2n1CC1CCCCN1CC2` (stereo not drawn) [Example 9.2, 3-(pyridin-2-ylethynyl)-9,10,11,12,12a,13-hexahydro-6H-pyrido[2′,1′:3,4][1,4]diazepino[7,1-b]quinazolin-15(7H)-one], the EC50 lay in the range of 100 to 300 nM. In the case of `O=c1[nH]cnc2cc(C#Cc3cccc(F)c3)ccc12` [Example 1.2, 7-((3-fluorophenyl)ethynyl)quinazolin-4(3H)-one], the EC50 fell in the range of 300 to 1000 nM. The figure for `O=c1c2ccc(C#Cc3cccc(F)c3)cc2nc2n1CC1CCCCN1C2` (stereo not drawn) [Example 5.19, 3-((3-fluorophenyl)ethynyl)-8,9,10,11,11a,12-hexahydropyrido[1′,2′:4,5]pyrazino[2,1-b]quinazolin-14(6H)-one] is 300 to 1000 nM. As to `N#CCN1CCc2nc3cc(C#Cc4ccccn4)ccn3c(=O)c2C1` [Example 15.6, 2-(11-oxo-7-(pyridin-2-ylethynyl)-3,4-dihydro-1H-dipyrido[1,2-a:4′,3′-d]pyrimidin-2(11H)-yl)acetonitrile], the EC50 was 300 to 1000 nM.
